Test [1] can be described thus: Ratio of MIC for wild-type Escherichia coli TG1 to MIC for Escherichia coli KAM3 acrB deletion mutant. It is filed as functional.
Test [2] has as its system Acinetobacter baumannii. The experiment in a line: Antibacterial activity against Acinetobacter baumannii ATCC 19606 measured after 20 to 24 hrs by agar dilution method. It is filed as functional. (Agar dilution tests growth on a series of plates holding different concentrations.)
Test [3] relates to Escherichia coli. The experiment in a line: Antibacterial activity against wild-type Escherichia coli TG1 after 16 to 20 hrs by agar dilution method. It is filed as functional.
Test [4] concerns Escherichia coli. The experiment in a line: Antibacterial activity against Escherichia coli KAM3 harboring acrB deletion mutant after 16 to 20 hrs by agar dilution method. It is filed as functional.
In test [5] the target is T1, UDP-3-O-acyl-N-acetylglucosamine deacetylase (Escherichia coli K-12, UniProt P0A725).
T1 sequence (P0A725 whole entry): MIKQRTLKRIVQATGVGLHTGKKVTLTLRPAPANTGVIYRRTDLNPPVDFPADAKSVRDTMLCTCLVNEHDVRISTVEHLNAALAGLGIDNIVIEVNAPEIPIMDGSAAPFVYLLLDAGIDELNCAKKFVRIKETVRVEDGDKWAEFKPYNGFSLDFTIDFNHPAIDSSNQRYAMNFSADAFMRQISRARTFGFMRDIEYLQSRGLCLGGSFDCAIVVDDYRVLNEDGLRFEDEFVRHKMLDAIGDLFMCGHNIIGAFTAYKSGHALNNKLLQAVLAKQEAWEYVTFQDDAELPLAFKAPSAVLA
Nature of the test: Inhibition of Escherichia coli LpxC using UDP-3-O-(R-3-hydroxymyristoyl)GlcNAc as substrate measured after 60 mins by fluorescence analysis.

Test [6] deals with Pseudomonas aeruginosa. Nature of the test: Antibacterial activity against Pseudomonas aeruginosa PAO4009 measured after 16 to 20 hrs by agar dilution method. It is filed as functional, organism-based.
Test [7] deals with Pseudomonas aeruginosa. Nature of the test: Antibacterial activity against wild type Pseudomonas aeruginosa K799 measured after 16 to 20 hrs by agar dilution method. It is filed as functional, organism-based.
In test [8] the test system is Pseudomonas aeruginosa. The experiment in a line: Antibacterial activity against Pseudomonas aeruginosa K799/61 measured after 16 to 20 hrs by agar dilution method. It is filed as functional, organism-based.
Test [9] has as its system Klebsiella pneumoniae. The experiment in a line: Antibacterial activity against wild-type Klebsiella pneumoniae ATCC 13883 by agar dilution method. It is filed as functional.

Converted amounts (≈) assume the structure as drawn. The source made the active and inactive calls. No cut-off for these calls is given here.

On to `O=C(NO)[C@@H]1CN(c2ccc(C#CC#CC3CC3)cc2F)C(=O)O1`, for which the Ratio in test [1] came out at 2. The outcome in [2], in [6], in [7] and in [8] was inactive. The MIC in test [3] amounted to 0.5 µg/mL (≈ 1.52 µM); in [4], 0.25 µg/mL (≈ 0.762 µM); in test [9], 4 µg/mL (≈ 12.2 µM). In test [5], this compound registered an IC50 of 200 nM.
Consider `O=C(NO)c1ccc(=O)n(-c2ccc(C#Cc3ccc(CN4CCOCC4)cc3)cc2)c1`, for which the minimum inhibitory concentration (MIC) in [3] was 8 µg/mL (≈ 18.6 µM); in test [4] it was 1 µg/mL (≈ 2.33 µM); in [9], 64 µg/mL (≈ 149 µM). Also, in test [5], the IC50 amounted to 1000 nM.
Regarding `O=C(NO)[C@@H]1CN(c2ccc(C#CC#CCCO)cc2)C(=O)O1`, in [1], the Ratio was 2. The figures for the MIC in [3], in test [4] and in test [9] were 0.5 µg/mL (≈ 1.59 µM), 0.125 µg/mL (≈ 0.398 µM) and 8 µg/mL (≈ 25.5 µM), respectively. For the same compound, the half-inhibitory concentration (IC50) in test [5] is 140 nM.
For `O=C(NO)[C@@H]1CN(c2ccc(C#CC#CCCCO)cc2)C(=O)O1`, in that order: 2, 0.125 µg/mL (≈ 0.381 µM), 0.031 µg/mL (≈ 0.0944 µM), 2 µg/mL (≈ 6.09 µM) and 58 nM.
Consider `O=C(NO)[C@@H]1CN(c2ccc(C#CC#C[C@H]3C[C@@H]3CO)cc2)C(=O)O1` (mixture of isomers), for which, in test [1], the Ratio was found to be 2. Further, the MIC in test [3] was 0.125 µg/mL; in [4], 0.016 µg/mL; in test [9], 1 µg/mL. The compound also gave an IC50 in [5] of 20 nM.
Take `O=C(NO)[C@@H]1CN(c2ccc(C#Cc3ccc(CN4CCOCC4)cc3)cc2)C(=O)CO1`: the minimal inhibitory concentration (MIC) in test [3] turned out to be 2 µg/mL (≈ 4.59 µM); in test [4], 0.25 µg/mL (≈ 0.574 µM); in [9], 16 µg/mL (≈ 36.7 µM). This compound displayed an IC50 in test [5] of 510 nM.
On the same counts, the results for `O=C(NO)[C@@H]1CN(c2ccc(C#Cc3ccc(CN4CCOCC4)cc3)cc2)C(=O)N1` are 8 µg/mL (≈ 19 µM), 0.5 µg/mL (≈ 1.19 µM), greater than 32 µg/mL and 700 nM.
With `C[C@@H](O)[C@H](NC(=O)c1ccc(C#Cc2ccc(CN3CCOCC3)cc2)cc1)C(=O)NO`, the minimal inhibitory concentration (MIC) in test [3] was 0.13 µg/mL (≈ 0.297 µM); in [4], 0.01 µg/mL (≈ 0.0229 µM); in test [9], 0.25 µg/mL (≈ 0.571 µM).
Take `O=C(NO)[C@@H]1CN(c2ccc(C#CC#CC3CC3)c(F)c2)C(=O)O1`: the Ratio in test [1] came to 2. The result in [2], in [6], in test [7] and in test [8] was inactive. The MIC in test [3] was found to be 0.016 µg/mL (≈ 0.0487 µM); in [4] it was 0.004 µg/mL (≈ 0.0122 µM); in test [9], 0.063 µg/mL (≈ 0.192 µM). The compound further yielded a 50% inhibitory concentration (IC50) in [5] of 6 nM.
For `COc1cc(C#CC#CC2CC2)ccc1N1C[C@@H](C(=O)NO)OC1=O`, the Ratio in [1] was determined as 2. Also, the MIC in [3] turned out to be 4 µg/mL (≈ 11.8 µM); in test [4], 0.5 µg/mL (≈ 1.47 µM); in test [9], 32 µg/mL (≈ 94 µM). This compound also registered an IC50 in [5] of 2000 nM.
On the same counts, the results for `Nc1cc(N2C[C@@H](C(=O)NO)OC2=O)ccc1C#CC#CC1CC1` are 2, 0.25 µg/mL (≈ 0.768 µM), 0.063 µg/mL (≈ 0.194 µM), 2 µg/mL (≈ 6.15 µM) and 270 nM.
`O=C(NO)[C@H]1CN(c2ccc(C#Cc3ccc(CN4CCOCC4)cc3)cc2)C(=O)O1`: the minimal inhibitory concentration (MIC) in test [3] came to 1 µg/mL (≈ 2.37 µM); in [4] it was 0.13 µg/mL (≈ 0.308 µM); in [9], 8 µg/mL (≈ 19 µM). Also, half-maximal inhibition in test [5] (IC50) required 260 nM.
As for `O=C(NO)[C@@H]1CN(c2ccc(C#CC#CC3CC3)c([N+](=O)[O-])c2)C(=O)O1`, in [1], the Ratio was 2. In addition, the MIC in test [3] came out at 0.125 µg/mL (≈ 0.352 µM); in test [4], 0.31 µg/mL (≈ 0.872 µM); in [9], 1 µg/mL (≈ 2.81 µM). Besides, inhibition in [5] was half-maximal at 27 nM (IC50).
For the compound `O=C(NO)[C@@H]1CN(c2ccc(C#Cc3ccc(CN4CCOCC4)cc3)cc2)C(=O)O1`, the Ratio in [1] came to 2. The outcome in test [2], in test [6], in test [7] and in test [8] was inactive. Besides, the MIC in test [3] was determined as 0.5 µg/mL (≈ 1.19 µM); in test [4], 0.06 µg/mL (≈ 0.142 µM); in test [9], 2 µg/mL (≈ 4.75 µM). The compound also came in with an IC50 in [5] of 130 nM.
As to `O=C(NO)[C@@H]1CN(c2ccc(C#CC#CC3CC3)cc2)C(=O)O1`, the Ratio in test [1] was 2. The outcome in [2], in [6], in [7] and in test [8] was inactive. Besides, the MIC in [3] was 0.063 µg/mL (≈ 0.203 µM); in test [4] it was 0.016 µg/mL (≈ 0.0516 µM); in [9], 0.25 µg/mL (≈ 0.806 µM). Also, the half-maximal inhibitory concentration (IC50) in test [5] was determined as 18 nM.

As a reminder, the MIC is the lowest concentration that inhibits growth of the organism. Read a low MIC as inhibition by little substance. As a reminder, the IC50 is the point on the concentration scale where inhibition reaches its midpoint.

Values taken from ChEMBL document CHEMBL3826886, “LpxC Inhibitors: Design, Synthesis, and Biological Evaluation of Oxazolidinones as Gram-negative Antibacterial Agents” (ACS Med Chem Lett, 2016).
